Series [1] concerns ICR mice. Put plainly: In-vivo toxicity study, single and multiple i.p. administration. Particulars: for body weight vs vehicle group: all P>0.05. The procedure:
Male ICR mice of 6-8 weeks were used as experimental subjects and randomly divided according to body weight after adaptive feeding for one week. Then compounds of different concentrations were prepared and used for single-administration and multiple-administration experiments by intraperitoneal injection (i.p), and a vehicle of the same component was used as a reference.
During this period, the body weight of the mice was measured daily. […] In the multiple-administration experiment, the administration doses of 50 mg/kg and 25 mg/kg were selected for administration at the frequency of once a day.

In series [2] the test system is Cathepsin S. Briefly: Screening of Cathepsin S, fluorescence. Type of series: biochemical. Particulars: >> inhibition rate did not exceed 20% at test concentration; > greater than 35%; ≈ about 50%; < less than 50%. As to the method:
10 μL of a buffer, a Cat S inhibitor and test compounds (1 μM and 10 μM) were added to 96-well plates to serve as an EC well, an IC well and an S well, respectively; 50 μL of a […] was added into all the wells respectively and the mixture was incubated for 10-15 min at room temperature to establish an enzyme inhibitor complex; 40 μL of a Cat S substrate solution was added into all the wells and the mixture was incubated for 30-60 min at room temperature; and the final volume of the reaction was 100 μL.
(§1) The screening method was the same as above, the concentrations of the test compounds were set between 0.1 nM and 10 μM, 4-5 concentrations were selected for detection, IC50 curves were drawn, and IC50 values were calculated.

Series [3] deals with Cathepsin K (Homo sapiens (Human), UniProt P43235). Put plainly: Cat K inhibitor screening kit, AFC substrate fluorescence. In kind it is biochemical. The procedure: Reagent information: Cat K inhibitor screening kit: batch number, 6L23K01500; supplier, BiVision. Drug preparation: compounds were dissolved in DMSO and prepared into 10 mM stock solutions. When in use, the stock solutions were prepared into the required concentrations by using a buffer.
Sequence of Cathepsin K (P43235 115-329): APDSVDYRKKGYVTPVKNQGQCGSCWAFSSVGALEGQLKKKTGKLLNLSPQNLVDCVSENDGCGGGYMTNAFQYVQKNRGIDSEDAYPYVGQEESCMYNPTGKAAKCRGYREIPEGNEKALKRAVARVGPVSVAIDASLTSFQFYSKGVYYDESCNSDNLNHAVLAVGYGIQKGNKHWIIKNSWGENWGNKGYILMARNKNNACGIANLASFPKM
Cathepsin K (CTSK, EC 3.4.22.38) is a lysosomal cysteine protease, participates in osteoclastic bone remodeling and resorption, and can further degrade collagen, gelatin and elastin. The cathepsin K inhibitor screening kit from Biovision uses the ability of the active cathepsin K to cleave a synthetic AFC-based peptide substrate to release AFC and the AFC can be easily quantified by using a fluorometer or fluorescent microplate reader. In the presence of a specific cathepsin K specific inhibitor, the cleavage of the substrate is reduced/eliminated, resulting in a reduction or complete loss of AFC fluorescence. The simple and high-throughput adaptive assay kit can be used to screen/study/characterize a potential inhibitor of the cathepsin K.
20 μL of a buffer, a Cat K inhibitor and test compounds (1 μM and 10 μM) were added to 96-well plates to serve as an EC well, an IC well and an S well, respectively; 50 μL of a Cat K enzyme solution was added into all the wells respectively and the mixture was incubated for 10-15 min at room temperature to establish an enzyme inhibitor complex; 30 μL of a Cat K substrate solution was added into all the wells and the mixture was incubated for 30-60 min at room temperature; and the final volume of the reaction was 100 μL.
The screening method was the same as 1.1, the concentrations of the test compounds were set between 0.1 nM and 10 μM, 4-5 concentrations were selected for detection, IC50 curves were drawn, and IC50 values were calculated.

The target of series [4] is Cathepsin B (Homo sapiens (Human), UniProt P07858). Briefly: Screening of Cathepsin B, fluorescence. Type of series: biochemical. The following applies: >> inhibition rate did not exceed 20% at test concentration; > greater than 35%; ≈ about 50%; < less than 50%. As to the method:
10 μL of a buffer, a Cat B inhibitor and test compounds (1 μM and 10 μM) were added to 96-well plates to serve as an EC well, an IC well and an S well, respectively; 50 μL of a Cat B enzyme solution was added into all the wells respectively and the mixture was incubated for 10-15 min at room temperature to establish an enzyme inhibitor complex; 40 μL of a Cat B substrate solution was added into all the wells and the mixture was incubated for 30-60 min at room temperature; and the final volume of the reaction was 100 μL.
as §1

The test system of series [5] is C4-2B cells. Put plainly: Migration, invasion and adhesion of C4-2B cells. In kind it is cell-based. Particulars: preliminary.

pIC50: −log10 of the molar value.

For `CN1CCN(c2nc(-c3ccc(CN(CC(C)(C)C)c4nccc(C#N)n4)cc3)cs2)CC1` [Compound K18, 2-((4-(2-(4-methylpiperazin-1-yl)thiazol-4-yl)benzyl) (neopentyl)amino)pyrimidine-4-carbonitrile], in series [1] (ICR mice), the “in-vivo toxicity (overall)” value was “relatively low in-vivo toxicity”. Moreover, the “body weight vs vehicle group” value was “No significant difference” in series [1] (i.p. 50 mg/kg and 25 mg/kg once a day, one week); “No significant difference” in series [1] (single i.p. administration 500 mg/kg and 300 mg/kg). Moreover, the “histopathology of liver, kidneys and heart vs vehicle group” value in series [1] (multiple administration 50 mg/kg and single administration 500 mg/kg) is reported as “no obvious pathological change was observed”. The “Cat S/K ratio of inhibitory activities” value in series [2] was >>5,780. This molecule showed a pIC50 in series [3] of 7.00 to 8.00. Besides, the “Cat B/K ratio of inhibitory activities” value in series [4] was >>5,780. Further, the “migration, invasion and adhesion of C4-2B cells” value in series [5] was “inhibit the migration, invasion and adhesion processes of the C4-2B cells in a concentration-dependent manner”.

Broadly, the pIC50 is −log10 of the IC50, conventionally taken in molar units.

(Values after patent US20250145576A1, “CATHEPSIN K INHIBITOR, AND PREPARATION METHOD THEREFOR AND USE THEREOF” (SHANDONG NEW TIME PHARMACEUTICAL CO., LTD., priority 2022, published 2025).)
